ChEMBL document CHEMBL1152909, “Low molecular weight non-peptide mimics of omega-conotoxin GVIA” (Bioorg Med Chem Lett, 2009)
Active and inactive are the calls of the source. The calls are words filed in the database; no cut-off is given here.

Each compound was assayed against Voltage-dependent N-type calcium channel subunit alpha-1B (Rattus norvegicus) (UniProt Q02294) (assay: (§1) Inhibition of rat neuronal Cav2.2 channel).
Voltage-dependent N-type calcium channel subunit alpha-1B (Rattus norvegicus), sequence (Q02294 whole entry, looked up): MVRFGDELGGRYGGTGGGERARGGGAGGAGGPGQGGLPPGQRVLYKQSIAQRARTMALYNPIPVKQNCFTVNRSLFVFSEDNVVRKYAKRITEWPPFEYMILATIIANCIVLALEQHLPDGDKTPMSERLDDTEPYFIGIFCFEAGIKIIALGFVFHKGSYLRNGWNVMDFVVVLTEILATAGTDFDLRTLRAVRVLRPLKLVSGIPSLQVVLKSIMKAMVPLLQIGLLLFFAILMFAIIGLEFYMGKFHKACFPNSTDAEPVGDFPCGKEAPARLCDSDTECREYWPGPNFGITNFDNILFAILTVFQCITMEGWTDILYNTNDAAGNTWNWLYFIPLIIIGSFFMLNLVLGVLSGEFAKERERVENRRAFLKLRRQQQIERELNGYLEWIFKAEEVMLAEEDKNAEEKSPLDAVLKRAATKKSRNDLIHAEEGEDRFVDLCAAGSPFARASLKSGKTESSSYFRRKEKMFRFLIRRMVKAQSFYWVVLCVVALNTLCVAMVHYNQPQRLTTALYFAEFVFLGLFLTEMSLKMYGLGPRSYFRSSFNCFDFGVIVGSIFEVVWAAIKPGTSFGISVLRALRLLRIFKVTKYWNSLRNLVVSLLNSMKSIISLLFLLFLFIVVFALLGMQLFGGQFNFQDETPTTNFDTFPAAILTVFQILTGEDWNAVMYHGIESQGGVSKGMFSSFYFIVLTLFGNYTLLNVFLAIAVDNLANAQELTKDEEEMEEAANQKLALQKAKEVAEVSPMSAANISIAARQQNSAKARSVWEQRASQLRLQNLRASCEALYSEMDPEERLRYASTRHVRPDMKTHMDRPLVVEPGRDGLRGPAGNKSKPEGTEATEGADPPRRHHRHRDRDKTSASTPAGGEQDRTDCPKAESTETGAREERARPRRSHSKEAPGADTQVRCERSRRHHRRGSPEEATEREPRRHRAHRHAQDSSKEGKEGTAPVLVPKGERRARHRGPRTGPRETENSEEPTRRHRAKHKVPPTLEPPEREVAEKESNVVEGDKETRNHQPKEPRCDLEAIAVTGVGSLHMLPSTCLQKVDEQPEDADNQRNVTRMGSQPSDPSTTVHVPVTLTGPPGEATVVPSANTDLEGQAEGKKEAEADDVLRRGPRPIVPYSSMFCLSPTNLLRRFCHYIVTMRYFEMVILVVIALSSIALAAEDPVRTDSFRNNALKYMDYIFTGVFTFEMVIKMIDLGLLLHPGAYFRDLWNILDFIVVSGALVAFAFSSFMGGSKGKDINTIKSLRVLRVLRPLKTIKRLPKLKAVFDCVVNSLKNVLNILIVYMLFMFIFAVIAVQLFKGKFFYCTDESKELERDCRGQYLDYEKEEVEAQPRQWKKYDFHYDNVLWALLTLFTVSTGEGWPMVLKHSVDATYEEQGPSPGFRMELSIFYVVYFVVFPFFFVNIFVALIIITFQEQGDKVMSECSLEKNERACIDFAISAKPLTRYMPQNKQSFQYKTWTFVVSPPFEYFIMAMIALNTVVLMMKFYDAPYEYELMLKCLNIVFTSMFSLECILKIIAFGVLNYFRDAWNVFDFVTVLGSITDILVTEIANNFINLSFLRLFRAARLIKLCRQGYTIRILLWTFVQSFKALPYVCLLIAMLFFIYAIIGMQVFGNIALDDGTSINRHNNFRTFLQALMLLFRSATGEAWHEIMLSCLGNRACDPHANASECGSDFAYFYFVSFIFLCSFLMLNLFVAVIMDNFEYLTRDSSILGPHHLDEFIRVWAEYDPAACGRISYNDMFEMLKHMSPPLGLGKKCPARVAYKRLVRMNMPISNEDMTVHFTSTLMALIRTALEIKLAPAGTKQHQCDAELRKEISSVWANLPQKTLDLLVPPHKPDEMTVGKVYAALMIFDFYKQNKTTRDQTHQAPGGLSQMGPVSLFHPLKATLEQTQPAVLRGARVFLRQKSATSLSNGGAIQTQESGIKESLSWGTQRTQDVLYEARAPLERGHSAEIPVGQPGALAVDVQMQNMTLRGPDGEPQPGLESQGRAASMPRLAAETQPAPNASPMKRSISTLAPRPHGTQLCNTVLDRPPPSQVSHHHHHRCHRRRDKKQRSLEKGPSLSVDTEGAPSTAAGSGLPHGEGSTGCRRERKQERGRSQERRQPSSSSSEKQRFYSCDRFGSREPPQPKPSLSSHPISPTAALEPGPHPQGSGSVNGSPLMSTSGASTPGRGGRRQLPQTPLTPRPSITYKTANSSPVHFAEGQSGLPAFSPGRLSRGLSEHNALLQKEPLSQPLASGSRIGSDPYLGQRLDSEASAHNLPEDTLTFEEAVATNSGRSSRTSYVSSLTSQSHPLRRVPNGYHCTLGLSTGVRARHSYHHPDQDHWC

Q: With `[N-]=[N+]=NCCCOc1ccc(CNc2nc3ccc(Oc4ccccc4)cc3s2)cc1` as the compound, how does the Activity read?
A: inactive

Q: Which Activity does the source give for `Oc1ccc(CNc2nc3ccc(Oc4ccccc4)cc3s2)cc1` here?
A: inactive

Q: Which Activity does the source give for `CC(C)(C)OC(=O)NCCCOc1ccc(CNc2nc3ccc(Oc4ccccc4)cc3s2)cc1` here?
A: inactive

Q: With `ClCCCOc1ccc(CNc2nc3ccc(Oc4ccccc4)cc3s2)cc1` as the compound, how does the Activity read?
A: inactive

The compounds below were run against Voltage-dependent N-type calcium channel subunit alpha-1B (Rattus norvegicus, UniProt Q02294) (assay: as §1).
Voltage-dependent N-type calcium channel subunit alpha-1B, sequence (Q02294 whole entry): as the sequence (Q02294 whole entry, looked up) above

Q: `NC(N)=NCCCOc1ccc(CNc2nc3ccc(Oc4ccccc4)cc3s2)cc1` was tested. Which EC50 did it give?
A: 5.8 µM

Q: For `NCCCOc1ccc(CNCC(c2ccccc2)c2ccccc2)cc1`, which EC50 is on record?
A: > 100 µM

Q: With `NCCCOc1ccccc1C(=O)Nc1nc2ccc(Oc3ccccc3)cc2s1` as the compound, how does the EC50 read?
A: > 100 µM

Q: `NCCCOc1ccccc1C(=O)N(Cc1ccc(OCCCN=C(N)N)cc1)c1nc2ccc(Oc3ccccc3)cc2s1` was tested. Which EC50 did it give?
A: 3.08 µM

Q: Which EC50 does the source give for `NC(N)=NCCCOc1ccc(CNC(c2ccccc2)c2ccccc2)cc1` here?
A: 23 µM

Q: Which EC50 does the source give for `NCCCOc1ccccc1C(=O)N(Cc1ccc(OCCCN=C(N)N)cc1)c1nc2ccc(Oc3ccc(O)cc3)cc2s1` here?
A: 1.78 µM

Q: How did the EC50 turn out when `NC(N)=NCCCOc1ccccc1C(=O)Nc1nc2ccc(Oc3ccccc3)cc2s1` was run?
A: 33 µM

Q: For `NC(N)=NCCCOc1ccc(CNc2ccc(Oc3ccccc3)cc2)cc1`, which EC50 is on record?
A: 21 µM

Q: With `NCCCOc1ccc(CNC(c2ccccc2)c2ccccc2)cc1` as the compound, how does the EC50 read?
A: > 100 µM

Q: For `NCCCOc1ccc(CN(C(=O)c2ccccc2OCCCN)c2nc3ccc(Oc4ccc(O)cc4)cc3s2)cc1`, which EC50 is on record?
A: 3.18 µM

Q: How did the EC50 turn out when `NCCCOc1ccc(CNc2ccc(Oc3ccccc3)cc2)cc1` was run?
A: 34 µM

Q: `NCCCOc1ccc(CNc2nc3ccc(Oc4ccccc4)cc3s2)cc1` was tested. Which EC50 did it give?
A: 76 µM

Q: `NC(N)=NCCCOc1ccc(CNCC(c2ccccc2)c2ccccc2)cc1` was tested. Which EC50 did it give?
A: 12 µM
